This note sets out measurements from BindingDB's records for doi:10.1046/j.1471-4159.1997.69051810.x (Janssen Research Foundation, 1997).

The target in test [1] is 5-hydroxytryptamine receptor 4 (Cavia porcellus, UniProt O70528).
The target in test [2] is 5-hydroxytryptamine receptor 4 (Homo sapiens, UniProt Q13639).

For orientation: Ki means the equilibrium dissociation constant of an inhibitor or competing ligand from its target. Read a low Ki as a stronger hold on the target.

5-hydroxytryptamine receptor 4 (Cavia porcellus, UniProt O70528), sequence (O70528 whole entry): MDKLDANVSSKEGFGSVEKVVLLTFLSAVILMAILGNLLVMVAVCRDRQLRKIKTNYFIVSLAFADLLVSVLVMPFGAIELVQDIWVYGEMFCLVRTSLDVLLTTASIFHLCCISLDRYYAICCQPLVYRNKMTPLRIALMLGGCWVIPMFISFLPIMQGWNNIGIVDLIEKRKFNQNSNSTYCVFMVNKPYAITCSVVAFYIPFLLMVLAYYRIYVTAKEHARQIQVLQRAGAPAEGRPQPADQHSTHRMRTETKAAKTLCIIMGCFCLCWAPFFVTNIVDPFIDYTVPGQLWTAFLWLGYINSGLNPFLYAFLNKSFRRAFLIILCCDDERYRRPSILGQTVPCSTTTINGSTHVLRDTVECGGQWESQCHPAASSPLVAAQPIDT
5-hydroxytryptamine receptor 4 (Homo sapiens, UniProt Q13639), sequence (Q13639 whole entry): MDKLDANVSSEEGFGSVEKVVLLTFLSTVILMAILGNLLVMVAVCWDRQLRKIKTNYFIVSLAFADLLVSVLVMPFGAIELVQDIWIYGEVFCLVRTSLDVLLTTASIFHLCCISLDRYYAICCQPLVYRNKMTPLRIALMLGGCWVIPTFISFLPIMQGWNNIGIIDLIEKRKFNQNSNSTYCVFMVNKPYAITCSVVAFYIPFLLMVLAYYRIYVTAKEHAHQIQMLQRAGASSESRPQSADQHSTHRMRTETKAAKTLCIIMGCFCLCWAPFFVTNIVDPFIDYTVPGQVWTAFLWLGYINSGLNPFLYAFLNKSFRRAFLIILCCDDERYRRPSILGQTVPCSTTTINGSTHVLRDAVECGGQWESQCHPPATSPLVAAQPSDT

With `CN1C2CCC1CC(OC(=O)c1c[nH]c3ccccc13)C2` (centres undefined), the affinity in test [1], expressed as Ki, was 200 nM.
Consider `CCCCN1CCC(COC(=O)c2cc(Cl)c(N)c3c2OCCO3)CC1` [CAS_121881], for which the Ki in test [2] was 0.1 nM; in test [1] it was 0.07 nM.
Consider `Cn1cc(C(=O)OCC2CCN(CCNS(C)(=O)=O)CC2)c2ccccc21` [GR 113808], for which the Ki in test [2] worked out at 0.25 nM; in test [1] it was 0.39 nM.
With `COc1[nH]c2ccc(F)cc2c1C(=O)OCC1CCN(CCNS(C)(=O)=O)CC1` [GR-125487], the Ki in test [2] amounted to 0.15 nM; in test [1] it was 0.19 nM.
Regarding `COc1ccc2[nH]cc(CCN)c2c1` [tryptamine, 5-Methoxy], the inhibition constant (Ki) in test [2] is 1000 nM; in test [1] it was 251 nM.
